Assay results from patent US20250091983A1, “CYCLOPENTANE AND CYCLOHEXANE VARIANTS OF 6-PHENYLHEXANAMIDE MITOFUSIN ACTIVATORS AND METHODS FOR USE THEREOF” (MITOCHONDRIA EMOTION, INC., priority 2021, published 2025).
pEC50: −log10 of the molar value.

Columns and labels:
[1] = Plasma protein binding by equilibrium dialysis, mouse; assay type: in vitro ADME; conditions: read-out: Plasma Protein Binding (Bound %) Mouse (converted)
Experimental: (§1) In vitro pharmacokinetic analyses were performed in duplicate using standard methods by WuXi AppTec Co. Ltd. (Shanghai, China). Plasma protein binding was measured by equilibrium dialysis; % bound=(1−[free compound in dialysate]/[total compound in retentate])×100. […] Liver microsome stability of 1 uM compounds in liver microsomes (0.5 mg/ml) after 0, 5, 10, 20, 30, 60 min. incubation was assessed by LC/MS/MS of reaction extracts.

[2] = test system: mitofusin; experiment: Dose-response of mitofusin agonist fusogenicity (mitochondrial aspect ratio); assay type: cell-based, mouse; conditions: Mfn1-KO or Mfn2-KO MEFs; mitochondrial aspect ratio indexed to maximal response of Compound 22; overnight
Experimental: Wild-type MEFs were prepared from E10.5 c57/bl6 mouse embryos. SV-40 T antigen-immortalized MFN1 null (CRL-2992), MFN2 null (CRL-2993) and MFN1/MFN2 double null MEFs (CRL-2994) were purchased from ATCC.
Mitochondria were then stained with MitoTracker Orange (200 nM; M7510; Invitrogen, Carlsbad, CA, USA). Nuclei were stained with Hoescht ([…]; Invitrogen, Thermo Fisher Scientific Cat: #1-3570). […] Response curves were interpolated using the sigmoidal model using Prism 8 software.

[3] = Plasma protein binding by equilibrium dialysis, human; assay type: in vitro ADME; conditions: read-out: Plasma Protein Binding (Bound %) Human (converted)
Experimental: as §1

[4] = Liver microsome stability, mouse; assay type: in vitro ADME; conditions: 1 uM compound, mouse liver microsomes 0.5 mg/ml; read-out: Liver Microsomes (t1/2, minutes) Mouse
Experimental: as §1

[5] = Liver microsome stability, human; assay type: in vitro ADME; conditions: 1 uM compound, human liver microsomes 0.5 mg/ml; read-out: Liver Microsomes (t1/2, minutes) Human
Experimental: as §1

Row | fraction unbound [1] | pEC50 [2] | fraction unbound [3] | half-life at 1 uM [4] | half-life at 1 uM [5] | Compound
1 | 0.012 | 7.82 | 0.007 | – | – | O=C(N[C@H]1CC[C@H](O)CC1)C1CCC(CCCc2ccccc2)C1 (stereo partly drawn) [15 (Exp.), N-(4-hydroxycyclohexyl)-3-(3-phenylpropyl)cyclopentane-1-carboxamide]
2 | – | 8.20 | – | 112 min | 23.7 min | O=C(CCCCCc1ccccc1)NC1CCOCC1 [23 (Comp.)]
